In US11304926B2, “Application of transient receptor potential cation channel TRPV3 in developing drug for preventing or treating psoriasis” (CHINA PHARMACEUTICAL UNIVERSITY, priority 2019, dated 2022) one finds PASI score data, which are given here for 2 compounds.

Marks after values point to notes of the source that are not given here.

In assay [1] the test system is mouse psoriasis model induced by 5% IMQ. The experiment in a line: PASI score of mouse psoriasis model induced by imiquimod under drug intervention. The conditions noted are these: 0.1% dexamethasone s.c. 100 μL twice a day + imiquimod, n = 8, mean ± SD. Format: in vivo. From the text: (§1) 16 C57BL/6 mice, with half male and half female were purchased from the Experimental Animal Center of Nanjing Medical University, wherein weights of the mice ranged from 18 g to 20 g. Back hair of the mice was shaved off, and then the mice were randomly divided into 2 groups (8 mice in each group) according to male and female genders. Before experiment, the mice were placed in a quiet environment kept away from strong light for 3 days to adapt to the environment, a ratio of an illuminating time to a dark time was 1:1, a room temperature was controlled at 25° C., a humidity was 55%, and the mice could eat and drink freely. 62.5 mg of 5% (0.1 g:2 g) imiquimod ointment (Zhuhai United Laboratories Co., Ltd.) was continuously applied to back skins of the mice for 6 days to induce a psoriasis-like lesion, while the same dose of vaseline ointment was given to the control group.
(§2) The clinical symptom of the mouse psoriasis model was evaluated by a PASI scoring standard from three indicators of erythema, scale and infiltration thickening. The scores ranged from 0 point to 4 points, and a total score was obtained by adding scores of the three indicators. The PASI scoring standard was as follows: 0 point referred to no symptom; 1 point referred to a mild degree; 2 points referred to a moderate degree; 3 points referred to a severe degree; and 4 points referred to an extremely severe degree. The PASI evaluation was conducted daily before the IMQ ointment was applied.
C57BL/6 mice, with half male and half female were purchased from the Experimental Animal Center of Nanjing Medical University, wherein weights of the mice ranged from 18 g to 20 g. The C57BL/6 mice were randomly divided into 4 groups (8 mice in each group). Mouse psoriasis models were established as described in Embodiment 2 (1). […]
Back skins of the mice were photographed and recorded on the 1st, 3rd and 5th days after modeling.

For assay [2], the system named is back skins of C57BL/6 mice. The assay is described as follows: PASI score of back skin of mice after continuous application of 5% imiquimod ointment (model induction). Format: in vivo, mouse. Particulars: 62.5 mg 5% imiquimod ointment on back skin, mean ± SD.
Source text: as §1, with “group. The back skins of the mice were photographed and recorded on the 1st, 3rd and 5th days of modeling and skin appearances on the 5th day of modeling were shown in FIG. 2A.” for “group.”
as §2, with “applied. It should be noted that measurement data was represented by mean±standard deviation (mean±SD), and was detected by One-Way ANOVA, wherein in the analysis results, ** represented that P<0.01, which was relative to the vaseline group.” for “applied.”

With `C[C@@H]1C[C@H]2[C@@H]3CCC4=CC(=O)C=C[C@]4(C)[C@@]3(F)[C@@H](O)C[C@]2(C)[C@@]1(O)C(=O)CO` [Dexamethasone, dexamethasone, reference compound], the PASI score stood at 0.0 ± 0.0 in assay [1] (day 1); 0.3 ± 0.5 in assay [1] (day 2); 0.8 ± 0.5 in assay [1] (day 3); 1.5 ± 1.0 in assay [1] (day 4); 2.3 ± 0.9 in assay [1] (day 5).
Regarding `CC(C)Cn1cnc2c(N)nc3ccccc3c21` [Imiquimod, imiquimod], the PASI score is given as 0.0 ± 0.0 in assay [2] (day 1); 1.5 ± 0.8 in assay [2] (day 2); 4.5 ± 2.2** in assay [2] (day 3); 6.8 ± 1.7** in assay [2] (day 4); 9.8 ± 1.3** in assay [2] (day 5).
